Values after ≈ are worked out from the molar mass of the structure shown. “Also recorded” adds a separate entry of the source.
What was measured:
[1] = tested on: C. elegans; test: C. elegans growth and proliferation; type: in vivo; conditions: 250 μM
[2] = tested on: M. smegmatis; test: Microplate Alamar Blue Assay (MIC, liquid culture); type: cell-based; conditions: Mycolicibacterium smegmatis; Table 3; liquid media, at least 99% growth inhibition
Method: The culture was diluted to OD600=˜0.02 in LB liquid media and added to 96-well plates at a final volume of 100 μL, with added inhibitor concentrations in two-fold dilutions. Perimeter wells were filled with sterile water. After 24 hours at 37° C. in a shaking incubator, 10 μL of the Alamar Blue reagent was added to each well. The plate was incubated for an additional 4 hours at 37° C., at which point fluorescence emission at 585 nm was measured using a plate reader. The lowest inhibitor concentration at which 99% or greater growth inhibition was observed was determined to be the MIC.

[3] = tested on: CeUGM; test: CeUGM inhibition; type: biochemical, C. elegans; conditions: 2.5 μM
[4] = Aggregation by Dynamic Light Scattering (DLS); type: physicochemical; conditions: for Aggregates observed?: 50 mM sodium phosphate buffer, 1% DMSO
Method: A representative subset of the compounds (1, 2, and 4) were evaluated for aggregation by Dynamic Light Scattering (DLS), see Table 1. Samples for DLS analysis were prepared in 50 mM sodium phosphate buffer from DMSO inhibitor stocks, at a final DMSO concentration of 1%, and a range of final concentrations of inhibitor.

[5] = tested on: C. elegans; test: C. elegans growth and proliferation; type: in vivo; conditions: threshold below which proliferation occurs at decreased rate
Source text: As concentration decreases, each of these compounds reaches a threshold where they no longer prevent worm proliferation, but rather cause retarded growth and development. The concentration that appears to be this threshold is reported above. Below this concentration, C. elegans growth and proliferation occur, but at a decreased rate with visible ill effects to the animal.

[6] = tested on: C. elegans; test: Bleach sensitivity assay (time until first rupture); type: in vivo; conditions: 50 microM; adult worms
Method: Compounds were tested at 50 microM. Adult worms (C. elegans) were chosen for testing and time until first rupture was measured when worms were placed in a bleach, sodium hydroxide solution. […] A graph showing results is provided as FIG. 4. Each treatment group has approximately an n=20. The Thompson Tau technique was used to determine statistical outliers.

[7] = molecular target: T1, recombinant MtbUGM (Mycobacterium tuberculosis, UniProt P9WIQ1); test: biochemical
T1 construct: made in house
T1 sequence (P9WIQ1 whole entry): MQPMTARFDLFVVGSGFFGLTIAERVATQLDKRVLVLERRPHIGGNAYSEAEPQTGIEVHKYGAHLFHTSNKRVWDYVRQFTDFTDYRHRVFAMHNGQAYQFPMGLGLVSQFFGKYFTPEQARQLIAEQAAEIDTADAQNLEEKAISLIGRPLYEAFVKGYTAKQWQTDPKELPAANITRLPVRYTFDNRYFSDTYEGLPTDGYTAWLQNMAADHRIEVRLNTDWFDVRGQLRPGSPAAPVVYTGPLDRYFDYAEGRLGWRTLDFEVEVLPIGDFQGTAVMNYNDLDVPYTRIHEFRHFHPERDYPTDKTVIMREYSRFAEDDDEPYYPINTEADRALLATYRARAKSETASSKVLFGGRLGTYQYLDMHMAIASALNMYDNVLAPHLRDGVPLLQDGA

[8] = tested on: M. smegmatis; test: Agar disk diffusion assay; parameters: zone of inhibition: dose or concentration left out as unconfirmed; conditions: Mycolicibacterium smegmatis, read-out: Inhibition zone
Method: M. smegmatis was grown to saturation over 48 hours at 37° C. in Middlebrook 7H9 media with Albumin Dextrose Catalase (ADC) enrichment and 0.05% Tween80. The culture was diluted to OD600=˜0.2 in LB liquid media and 100 μL of dilute culture was spread onto LB agar plates, then allowed to soak into the agar for 1 hour at room temperature. Sterile disks (3 mm diameter) were impregnated with a solution of inhibitor in DMSO (1.5 μL) and placed on top of the bacterial lawn. […] The plates were incubated for 72 hours at 37° C., at which point a lawn of bacteria was visible. Zones of inhibition were measured as the average diameter of the region around a cloning disk where bacterial growth was not visible. For each disk, three diameter measurements were taken and averaged.

[9] = Aggregation by Dynamic Light Scattering (DLS); type: physicochemical; conditions: 1% DMSO

Structure (SMILES)	Inhibition of C. elegans proliferation [1]	Effective inhibitor of C. elegans growth at 250 μM ([1]; Table 7)	MIC [2] [µM]	CeUGM % Inhibition at 2.5 μM [3] [%]	Aggregates observed? ([4]; Conc. 10 uM)	Aggregates observed? ([4]; Conc. 25 uM)	Aggregates observed? ([4]; Conc. 50 uM)	Aggregates observed? ([4]; Conc. 100 uM)	Aggregation by DLS ([4]; concentrations up to 50 μM)	Apparent MIC (μM) to inhibit C. elegans propagation [5] [µM]	Time until first rupture in bleach, sodium hydroxide solution [6]	IC50 ([7]; Table 2, standard deviation, n = 3) [µM]	zone of inhibition [8] [mm]	Aggregates by dynamic light scattering ([9]; 10 μM in PBS buffer)	Aggregates by dynamic light scattering ([9]; 100 μM in PBS buffer)	MtbUGM activity in presence of compound (in words) ([7]; 10 μM)	inhibition at 10 µM ([7]; 10 μM, mean of two replicates, read-out: % inhib MtbUGM (10 μM)) [%]	inhibition at 50 µM ([7]; 50 μM, mean of two replicates, read-out: % inhib MtbUGM (50 μM)) [%]	inhibition at 100 µM ([7]; 100 μM, mean of two replicates, read-out: % inhib MtbUGM (100 μM)) [%]	Effect of surfactant on relative inhibitor potency ([7]; presence and absence of Tween80)
O=C(NS(=O)(=O)c1ccccc1)C(Cc1ccc(I)cc1)Nc1nc(-c2ccc(Cl)c(Cl)c2)cs1 (centres unmarked) [Compound 4, 2-((4-(3,4-dichlorophenyl)thiazol-2-yl)amino)-3-(4-iodophenyl)-N-(phenylsulfonyl)propanamide]	significantly inhibit	Yes	25 (≈ 16.5 µg/mL)	92.2 ± 0.2	No	No	No	Yes	No aggregation was observed	250	enhances bleach sensitivity significantly; also recorded: statistically significant decrease	7 ± 2	7.3 ± 0.6							
O=C(O)CC1Sc2nnc(Cc3ccc(Br)cc3)n2N=C1c1ccc(-c2ccccc2)cc1 (centres unmarked) [Compound 25, 2-(6-([1,1′-biphenyl]-4-yl)-3-(4-bromobenzyl)-7H-[1,2,4]triazolo[3,4-b][1,3,4]thiadiazin-7-yl)acetic acid]														No aggregates were observed	No aggregates were observed	completely ablated	100	100	100	insignificant
